For five compounds, melting point, IC50 and CC50 results are on record in US10597390B2, “Indoles for use in influenza virus infection” (Janssen Sciences Ireland UC, priority 2014, dated 2020).

The test system of data set [1] is influenza virus A/Taiwan/1/86 (H1N1). The experiment in a line: organism not typed. The note with it: CPE in MDCK cells, three days post-virus exposure, ATPlite. The class given is cell-based. (ATP-based viability assays read luminescence as a measure of living cells.)
The test system of the next data set is MDCK cells. The note with it: dog, 3 days.

Structures are written as SMILES.

Usually melting point stands for the temperature of the solid-liquid transition. The IC50 is the concentration needed to halve the response being measured. Read a low IC50 as greater potency in that assay. By CC50 is commonly meant the concentration that lowers cell viability or growth by half. `Cc1cc(C(=O)N[C@@H]2CCC[C@H](Nc3nc(-c4c[nH]c5c(F)cc(F)cc45)c(C#N)cc3F)C2)nn1C` [Compound 211] came in with a melting point of 235 °C. The compound further returned an IC50 in data set [1] of 4 nM. In addition, the CC50 with MDCK cells was greater than 25000 nM.

For `Cc1cc(C(=O)N[C@@H]2CCC[C@@H](Nc3nc(-c4c[nH]c5c(F)cc(F)cc45)c(C#N)cc3F)C2)on1` (racemic) [Compound 207], the melting point is 285 °C. Moreover, in data set [1] (MDCK, 72 h), the IC50 was 12 nM. This compound also came in with a CC50 with MDCK cells of 8000 nM.

`Cc1cc(C(=O)N[C@@H]2CCC[C@H](Nc3nc(-c4c[nH]c5c(F)cc(Cl)cc45)ncc3F)C2)on1` [Compound 44] came in with a melting point of 255.1 °C. Also, the IC50 in data set [1] amounted to 15 nM. Also, in the data set on MDCK cells, the CC50 was found to be 3500 nM.

`Cc1cc(C(=O)N[C@@H]2CCC[C@H](Nc3nc(-c4c[nH]c5c(F)cc(F)cc45)ncc3F)C2)on1` [Compound 133] returned a melting point of 278.5 °C. In data set [1] (MDCK, 72 h), this compound displayed an IC50 of 13 nM. In the data set on MDCK cells, this compound had a CC50 of 7500 nM.

`Cc1cc(C(=O)N[C@@H]2CCC[C@H](Nc3nc(-c4c[nH]c5c(F)cc(F)cc45)ncc3F)C2)nn1C` [Compound 129] gave a melting point of 158 °C. The IC50 in data set [1] was 8 nM. The compound also returned a 50% cytotoxic concentration (CC50) in the data set on MDCK cells of 7500 nM.
